{
  "source": "patent US20220265792A1",
  "about": "“METHODS FOR TREATING SOLID TUMORS” (Breakbio Corp., priority 2019, published 2022)",
  "origin": "cited, not measured here",
  "molecules": {"B1": {"name": "FLT3L: FMS-like tyrosine kinase 3 ligand, expands and mobilizes antigen presenting cells (protein, UniProt P49771 27-235, looked up)", "Fms-related tyrosine kinase 3 …": "TQDCSFQHSPISSDFAVKIRELSDYLLQDYPVTVASNLQDEELCGGLWRLVLAQRWMERLKTVAGSKMQGLLERVNTEIHFVTKCAFQPPPSCLRFVQTNISRLLQETSEQLVALKPWITRQNFSRCLELQCQPDSSTLPPPWSPRPLEATAPTAPQPPLLLLLLLPVGLLLLAAAWCLHWQRTRRRTPRPGEQVPPVPSPQDLLLVEH"}},
  "key": {"Treg cells": {"test_system": "Treg cells", "settings": "50 mg bid seven days, seven days off, another seven days of 50 mg bid"}, "Renal Cell Carcinoma": {"test_system": "Renal Cell Carcinoma", "settings": "human, in vivo"}, "mCRC patients": {"test_system": "mCRC patients", "settings": "20 μg/Kg/day for 14 days, 1 to 3 cycles"}},
  "data": [
    {"molecule": "O=P1(N(CCCl)CCCl)NCCCO1", "note": "(racemic) [cyclophosphamide, (RS)—N,N-bis(2-chloroethyl)-1,3,2-oxazaphosphinan-2-amine 2-oxide]", "values": [
      {"measurement": "effect on Treg cells", "setting": "Treg cells", "result": "significantly depleted Treg cells"}
    ]},
    {"molecule": "COc1cc2nccc(Oc3ccc(NC(=O)NC4CC4)c(Cl)c3)c2cc1C(N)=O", "note": "[Lenvatinib]", "values": [
      {"measurement": "clinical effect as monotherapy", "setting": "colorectal cancer", "result": "modest clinical effect"}
    ]},
    {"molecule": "CNC(=O)c1cc(Oc2ccc(NC(=O)Nc3ccc(Cl)c(C(F)(F)F)c3)c(F)c2)ccn1", "note": "[regorafenib]", "values": [
      {"measurement": "clinical activity as single agent", "setting": "lung, pancreatic", "result": "modest clinical activity"}
    ]},
    {"molecule": "Bevacizumab: monoclonal antibody binding circulating VEGF-A", "values": [
      {"measurement": "intra-tumoral T-cell infiltration", "setting": "Renal Cell Carcinoma", "result": "augmented intra-tumoral T-cell infiltration"}
    ]},
    {"molecule": "B1", "values": [
      {"measurement": "number of APCs observed on the periphery of tumors", "setting": "mCRC patients", "result": "significantly increased"},
      {"measurement": "percentage of APCs in PBMCs", "setting": "mCRC patients; from 2.4%", "result": 8.8, "unit": "%"},
      {"measurement": "number of leukocytes in peripheral blood", "setting": "mCRC patients; from 5,900/mm^3", "result": "11,200 /mm^3"}
    ]}
  ]
}
